Data reported in patent US11590139B2, “Substituted aminopurine compounds, compositions thereof, and methods of treatment therewith” (Signal Pharmaceuticals, LLC, priority 2014, dated 2023).
pIC50: −log10 of the molar value.

Tested on: Lox-IMVI melanoma cell line
Test: Lox-IMVI anti-proliferative assay (growth inhibition, Cell Titer-Glo)
Type: cell-based, human
Conditions: Homo sapiens; Lox-IMVI anti-proliferative assay, IC50 activity level; read-out: Activity
Procedure, shortened: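 Lox-IMVI cells in RPMI+10% FBS exposed 72 h at 37 °C to 10-point, 3-fold dilutions (0.5 nM–10 μM; 0.2% DMSO final), in duplicate. Viability by Cell Titer-Glo luminescence, with a t0 cell-number reading; data as % of DMSO control; IC50 from a four-parameter logistic fit.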

Row | SMILES | pIC50
1 | NC(=O)[C@H]1CC[C@@H](n2c(Nc3c(Cl)cccc3Cl)nc3cnc(N[C@@H]4CCC[C@@H](O)C4)nc32)CC1 [Example 417, (1S,4s)-4-(8-(2,6-dichlorophenylamino)-2-((1R,3R)-3-hydroxycyclohexylamino)-9H-purin-9-yl)cyclohexanecarboxamide] | < 6.00
2 | NC(=O)[C@H]1CC[C@@H](n2c(Nc3c(F)cc(F)cc3F)nc3cnc(N[C@@H]4CCC[C@@H](O)C4)nc32)CC1 [Example 418, (1S,4s)-4-(2-((1R,3R)-3-hydroxycyclohexylamino)-8-(2,4,6-trifluorophenylamino)-9H-purin-9-yl)cyclohexanecarboxamide] | < 6.00
3 | NC(=O)[C@H]1CC[C@@H](n2c(Nc3c(F)cccc3F)nc3cnc(N[C@@H]4CCC[C@@H](O)C4)nc32)CC1 [Example 419, (1S,4s)-4-(8-(2,6-difluorophenylamino)-2-((1R,3R)-3-hydroxycyclohexylamino)-9H-purin-9-yl)cyclohexanecarboxamide] | < 6.00
4 | NC(=O)[C@H]1CC[C@@H](n2c(Nc3c(F)cc(F)cc3Cl)nc3cnc(N[C@@H]4CCC[C@@H](O)C4)nc32)CC1 [Example 420, (1S,4s)-4-(8-(2-chloro-4,6-difluorophenylamino)-2-((1R,3R)-3-hydroxycyclohexylamino)-9H-purin-9-yl)cyclohexanecarboxamide] | < 6.00
5 | NC(=O)[C@H]1CC[C@@H](n2c(Nc3c(F)cc(Cl)cc3F)nc3cnc(N[C@@H]4CCC[C@@H](O)C4)nc32)CC1 [Example 421, (1S,4s)-4-(8-(4-chloro-2,6-difluorophenylamino)-2-((1R,3R)-3-hydroxycyclohexylamino)-9H-purin-9-yl)cyclohexanecarboxamide] | < 6.00
6 | NC(=O)[C@H]1CC[C@@H](n2c(Nc3c(F)cc(Cl)cc3Cl)nc3cnc(N[C@@H]4CCC[C@@H](O)C4)nc32)CC1 [Example 422, (1S,4s)-4-(8-(2,4-dichloro-6-fluorophenylamino)-2-((1R,3R)-3-hydroxycyclohexylamino)-9H-purin-9-yl)cyclohexanecarboxamide] | 6.00 to 6.30
7 | NC(=O)[C@H]1CC[C@@H](n2c(Nc3c(Cl)cc(F)cc3Cl)nc3cnc(N[C@@H]4CCC[C@@H](O)C4)nc32)CC1 [Example 423, (1S,4s)-4-(8-(2,6-dichloro-4-fluorophenylamino)-2-((1R,3R)-3-hydroxycyclohexylamino)-9H-purin-9-yl)cyclohexanecarboxamide] | 6.00 to 6.30
8 | C[C@]1(O)CCC[C@@H](Nc2ncc3nc(Nc4c(Cl)cccc4Cl)n([C@H]4CC[C@@H](C(N)=O)CC4)c3n2)C1 [Example 424, (1S,4s)-4-(8-(2,6-dichlorophenylamino)-2-((1R,3S)-3-hydroxy-3-methylcyclohexylamino)-9H-purin-9-yl)cyclohexanecarboxamide] | < 6.00
9 | C[C@]1(O)CCC[C@@H](Nc2ncc3nc(Nc4c(F)cc(F)cc4Cl)n([C@H]4CC[C@@H](C(N)=O)CC4)c3n2)C1 [Example 425, (1S,4s)-4-(8-(2-chloro-4,6-difluorophenylamino)-2-((1R,3S)-3-hydroxy-3-methylcyclohexylamino)-9H-purin-9-yl)cyclohexanecarboxamide] | < 6.00
10 | C[C@]1(O)CCC[C@@H](Nc2ncc3nc(Nc4c(F)cc(Cl)cc4F)n([C@H]4CC[C@@H](C(N)=O)CC4)c3n2)C1 [Example 426, (1S,4s)-4-(8-(4-chloro-2,6-difluorophenylamino)-2-((1R,3S)-3-hydroxy-3-methylcyclohexylamino)-9H-purin-9-yl)cyclohexanecarboxamide] | < 6.00
11 | C[C@]1(O)CCC[C@@H](Nc2ncc3nc(Nc4c(F)cc(Cl)cc4Cl)n([C@H]4CC[C@@H](C(N)=O)CC4)c3n2)C1 [Example 427, (1S,4s)-4-(8-(2,4-dichloro-6-fluorophenylamino)-2-((1R,3S)-3-hydroxy-3-methylcyclohexylamino)-9H-purin-9-yl)cyclohexanecarboxamide] | 6.00 to 6.30
12 | C[C@]1(O)CCC[C@@H](Nc2ncc3nc(Nc4c(Cl)cc(F)cc4Cl)n([C@H]4CC[C@@H](C(N)=O)CC4)c3n2)C1 [Example 428, (1S,4s)-4-(8-(2,6-dichloro-4-fluorophenylamino)-2-((1R,3S)-3-hydroxy-3-methylcyclohexylamino)-9H-purin-9-yl)cyclohexanecarboxamide] | < 6.00

The remaining lines, values ahead:

Row | pIC50 | SMILES
13 | < 6.00 | C[C@]1(O)CCC[C@@H](Nc2ncc3nc(Nc4ccc(F)cc4Cl)n([C@H]4CC[C@@H](C(N)=O)CC4)c3n2)C1 [Example 429, (1S,4s)-4-(8-(2-chloro-4-fluorophenylamino)-2-((1R,3S)-3-hydroxy-3-methylcyclohexylamino)-9H-purin-9-yl)cyclohexanecarboxamide]
14 | 6.00 to 6.30 | CC(C)Nc1ncc2nc(Nc3c(F)cc(C#N)cc3Cl)n([C@H]3CC[C@@H](C(N)=O)CC3)c2n1 [Example 430, (1s,4s)-4-(8-(2-chloro-4-cyano-6-fluorophenylamino)-2-(isopropylamino)-9H-purin-9-yl)cyclohexanecarboxamide]
15 | 6.00 to 6.30 | CC(C)Nc1ncc2nc(Nc3c(Cl)cc(C#N)cc3Cl)n([C@H]3CC[C@@H](C(N)=O)CC3)c2n1 [Example 431, (1s,4s)-4-(8-(2,6-dichloro-4-cyanophenylamino)-2-(isopropylamino)-9H-purin-9-yl)cyclohexanecarboxamide]
16 | 6.00 to 6.30 | CC[C@@H](CO)Nc1ncc2nc(Nc3c(Cl)cc(C#N)cc3Cl)n([C@H]3CC[C@@H](C(N)=O)CC3)c2n1 [Example 432, (1R,4s)-4-(8-(2,6-dichloro-4-cyanophenylamino)-2-((S)-1-hydroxybutan-2-ylamino)-9H-purin-9-yl)cyclohexanecarboxamide]
17 | < 6.00 | CC[C@@H](CO)Nc1ncc2nc(Nc3c(F)cc(C#N)cc3Cl)n([C@H]3CC[C@@H](C(N)=O)CC3)c2n1 [Example 433, (1R,4s)-4-(8-(2-chloro-4-cyano-6-fluorophenylamino)-2-((S)-1-hydroxybutan-2-ylamino)-9H-purin-9-yl)cyclohexanecarboxamide]
18 | < 6.00 | NC(=O)[C@H]1CC[C@@H](n2c(Nc3c(F)cc(F)cc3F)nc3cnc(N[C@@H]4CCCC[C@H](O)C4)nc32)CC1 [Example 434, (1S,4s)-4-(2-((1R,3S)-3-hydroxycycloheptylamino)-8-(2,4,6-trifluorophenylamino)-9H-purin-9-yl)cyclohexanecarboxamide]
19 | < 6.00 | NC(=O)[C@H]1CC[C@@H](n2c(Nc3c(Cl)cccc3Cl)nc3cnc(N[C@@H]4CCCC[C@H](O)C4)nc32)CC1 [Example 435, (1S,4s)-4-(8-(2,6-dichlorophenylamino)-2-((1R,3S)-3-hydroxycycloheptylamino)-9H-purin-9-yl)cyclohexanecarboxamide]
20 | < 6.00 | NC(=O)[C@H]1CC[C@@H](n2c(Nc3c(F)cccc3Cl)nc3cnc(N[C@@H]4CCCC[C@H](O)C4)nc32)CC1 [Example 436, (1S,4s)-4-(8-(2-chloro-6-fluorophenylamino)-2-((1R,3S)-3-hydroxycycloheptylamino)-9H-purin-9-yl)cyclohexanecarboxamide]
21 | < 6.00 | NC(=O)[C@H]1CC[C@@H](n2c(Nc3c(F)cc(F)cc3Cl)nc3cnc(N[C@@H]4CCCC[C@H](O)C4)nc32)CC1 [Example 437, (1S,4s)-4-(8-(2-chloro-4,6-difluorophenylamino)-2-((1R,3S)-3-hydroxycycloheptylamino)-9H-purin-9-yl)cyclohexanecarboxamide]
22 | < 6.00 | NC(=O)[C@H]1CC[C@@H](n2c(Nc3c(F)cc(Cl)cc3F)nc3cnc(N[C@@H]4CCCC[C@H](O)C4)nc32)CC1 [Example 438, (1S,4s)-4-(8-(4-chloro-2,6-difluorophenylamino)-2-((1R,3S)-3-hydroxycycloheptylamino)-9H-purin-9-yl)cyclohexanecarboxamide]
23 | < 6.00 | NC(=O)[C@H]1CC[C@@H](n2c(Nc3c(Cl)cc(Cl)cc3Cl)nc3cnc(N[C@@H]4CCCC[C@H](O)C4)nc32)CC1 [Example 439, (1S,4s)-4-(2-((1R,3S)-3-hydroxycycloheptylamino)-8-(2,4,6-trichlorophenylamino)-9H-purin-9-yl)cyclohexanecarboxamide]
24 | < 6.00 | NC(=O)[C@H]1CC[C@@H](n2c(Nc3ccc(Cl)c(F)c3F)nc3cnc(N[C@@H]4CCCC[C@H](O)C4)nc32)CC1 [Example 440, (1S,4s)-4-(8-(4-chloro-2,3-difluorophenylamino)-2-((1R,3S)-3-hydroxycycloheptylamino)-9H-purin-9-yl)cyclohexanecarboxamide]
25 | 6.00 to 6.30 | CC(C)Nc1ncc2nc(Nc3c(F)cc(C#N)cc3F)n([C@H]3CC[C@@H](C(N)=O)CC3)c2n1 [Example 441, (1s,4s)-4-(8-(4-cyano-2,6-difluorophenylamino)-2-(isopropylamino)-9H-purin-9-yl)cyclohexanecarboxamide]
26 | 6.30 to 6.60 | NC(=O)[C@H]1CC[C@@H](n2c(Nc3c(Cl)cc(C(F)(F)F)cc3Cl)nc3cnc(NC4CCOCC4)nc32)CC1 [Example 442, (1s,4s)-4-(8-(2,6-dichloro-4-(trifluoromethyl)phenylamino)-2-(tetrahydro-2H-pyran-4-ylamino)-9H-purin-9-yl)cyclohexanecarboxamide]
27 | < 6.00 | N#Cc1ccc(Cl)c(Nc2nc3cnc(NC4CCOCC4)nc3n2[C@H]2CC[C@@H](C(N)=O)CC2)c1Cl [Example 443, (1s,4s)-4-(8-(2,6-dichloro-3-cyanophenylamino)-2-(tetrahydro-2H-pyran-4-ylamino)-9H-purin-9-yl)cyclohexanecarboxamide]
28 | < 6.00 | NC(=O)[C@H]1CC[C@@H](n2c(Nc3c(Cl)cc(Cl)cc3Cl)nc3cnc(N[C@H]4CCCC[C@@H](O)C4)nc32)CC1 [Example 444, (1R,4s)-4-(2-((1S,3R)-3-hydroxycycloheptylamino)-8-(2,4,6-trichlorophenylamino)-9H-purin-9-yl)cyclohexanecarboxamide]
